The source of these data is patent EP2530078A1, “THIAZOLE DERIVATIVE” (Takeda Pharmaceutical Company Limited, priority 2010, dated 2011).

Structures can show the parent of a compound that is named as a salt.

T1 sequence (Q9Y2T5 whole entry): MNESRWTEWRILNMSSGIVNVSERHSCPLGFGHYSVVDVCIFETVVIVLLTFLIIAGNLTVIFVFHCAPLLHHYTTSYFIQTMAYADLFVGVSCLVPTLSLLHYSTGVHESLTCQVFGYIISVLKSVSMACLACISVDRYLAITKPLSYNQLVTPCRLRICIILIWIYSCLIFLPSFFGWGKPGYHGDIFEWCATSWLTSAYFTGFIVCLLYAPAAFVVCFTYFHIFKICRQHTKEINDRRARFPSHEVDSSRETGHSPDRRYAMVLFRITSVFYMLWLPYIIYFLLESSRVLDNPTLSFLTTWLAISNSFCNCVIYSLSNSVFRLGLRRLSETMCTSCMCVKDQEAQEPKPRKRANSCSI

One assay concerns the target T1, human GPR52 (Homo sapiens, UniProt Q9Y2T5).
T1 construct: expressed in transfected cells; host or cells: CHO(dhfr-) cells
Put plainly: Increase of intracellular cAMP concentration in human GPR52-expressing CHO cell (AlphaScreen cAMP assay). The settings on record: 0.5 h; test compound 10 µm, 37°C, 30 min, human GPR52-expressing CHO(dhfr-) cells; 100% = cAMP with 1 µM N-(2-hydroxyethyl)-3-[2-[3-(trifluoromethyl)benzyl]-1-benzofuran-4-yl]benzamide, 0% = DMSO; read-out: GPR52 agonist activity (%). Format: cell-based. The method, then:
Increase of intracellular cAMP concentration in human GPR52-expressing CHO cell
Using OptiPlate-384 (PerkinElmer Inc.), 1×10^4 human GPR52-expressing CHO(dhfr-) cells were incubated together with a test compound ([…]) in an assay buffer (30 µL, HBSS (containing Ca^2+ and Mg^2+), 0.5% BSA, 100 µM IBMX, 100 µM Ro20-1724, 5 mM HEPES (pH 7.55)) at 37°C for 30 min. Thereafter, according to the protocol of AlphaScreen cAMP Assay Kit (PerkinElmer Inc.), the intracellular cAMP concentration was measured by EnVision (PerkinElmer Inc.). The GPR52 agonist activity was calculated, assuming the intracellular cAMP concentration in the presence of 1 µM N-(2-hydroxyethyl)-3-[2-[3-(trifluoromethyl)benzyl]-1-benzofuran-4-yl]benzamide to be 100% and assuming the intracellular cAMP concentration when DMSO was added instead of the test compound to be 0%.
(In general: Bead proximity is the source of the signal in Alpha formats.)
Turning to `Cc1nc(Cc2cc(F)cc(Cl)c2)sc1NC(=O)c1ccnn1C` [Example 145, N-[2-(3-chloro-5-fluorobenzyl)-4-methyl-1,3-thiazol-5-yl]-1-methyl-1H-pyrazole-5-carboxamide], the activation at 10 µM was found to be 95%.

Consider `Cc1nn(C)cc1C(=O)Nc1sc(Cc2cc(F)cc(Cl)c2)nc1C` [Example 146, N-[2-(3-chloro-5-fluorobenzyl)-4-methyl-1,3-thiazol-5-yl]-1,3-dimethyl-1H-pyrazole-4-carboxamide], for which the activation at 10 µM turned out to be 84%.

In the case of `CCn1nccc1C(=O)Nc1sc(Cc2cc(F)cc(Cl)c2)nc1C` [Example 148, N-[2-(3-chloro-5-fluorobenzyl)-4-methyl-1,3-thiazol-5-yl]-1-ethyl-1H-pyrazole-5-carboxamide], the activation at 10 µM is 76%.

On to `CCCn1nccc1C(=O)Nc1sc(Cc2cc(F)cc(Cl)c2)nc1C` [Example 153, N-[2-(3-chloro-5-fluorobenzyl)-4-methyl-1,3-thiazol-5-yl]-1-propyl-1H-pyrazole-5-carboxamide], for which the activation at 10 µM stood at 72%.

On to `Cc1nc(C(O)c2cccc(C(F)(F)F)c2)sc1NC(=O)c1ccnn1C` (stereo not drawn) [Example 210, N-(2-{hydroxy[3-(trifluoromethyl)phenyl]methyl}-4-methyl-1,3-thiazol-5-yl)-1-methyl-1H-pyrazole-5-carboxamide], for which the activation at 10 µM came to 82%.

In the case of `Cc1nc(Cc2cc(F)cc(Cl)c2)sc1NC(=O)C1CCS(=O)(=O)C1` (stereo not drawn) [Example 216, N-[2-(3-chloro-5-fluorobenzyl)-4-methyl-1,3-thiazol-5-yl]-tetrahydrothiophene-3-carboxamide 1,1-dioxide], the activation at 10 µM stood at 77%.

With `COc1cccc(Cc2nc(C)c(NC(=O)c3ccnn3C)s2)c1` [Example 219, N-[2-(3-methoxybenzyl)-4-methyl-1,3-thiazol-5-yl]-1-methyl-1H-pyrazole-5-carboxamide], the activation at 10 µM amounted to 82%.

Turning to `Cc1nc(Cc2cc(F)cc(F)c2)sc1NC(=O)c1ccnn1C` [Example 220, N-[2-(3,5-difluorobenzyl)-4-methyl-1,3-thiazol-5-yl]-1-methyl-1H-pyrazole-5-carboxamide], the activation at 10 µM turned out to be 79%.

Turning to `Cc1cccc(Cc2nc(C)c(NC(=O)c3ccnn3C)s2)c1` [Example 221, 1-methyl-N-[4-methyl-2-(3-methylbenzyl)-1,3-thiazol-5-yl]-1H-pyrazole-5-carboxamide], the activation at 10 µM was found to be 90%.

`Cc1nc(Cc2cccc(Br)c2)sc1NC(=O)c1ccnn1C` [Example 224, N-[2-(3-bromobenzyl)-4-methyl-1,3-thiazol-5-yl]-1-methyl-1H-pyrazole-5-carboxamide]: the activation at 10 µM is 80%.

Regarding `Cc1nc(Cc2cccc(C3CC3)c2)sc1NC(=O)c1ccnn1C` [Example 227, N-[2-(3-cyclopropylbenzyl)-4-methyl-1,3-thiazol-5-yl]-1-methyl-1H-pyrazole-5-carboxamide], the activation at 10 µM was 101%.

In the case of `Cc1nc(Cc2cc(F)cc(Cl)c2)sc1NC(=O)c1cccc(S(C)(=O)=O)c1` [Example 228, N-[2-(3-chloro-5-fluorobenzyl)-4-methyl-1,3-thiazol-5-yl]-3-(methylsulfonyl)benzamide], the activation at 10 µM was found to be 69%.

Consider `Cc1nc(Cc2cc(F)cc(Cl)c2)sc1NC(=O)c1cc(CC#N)nn1C` [Example 230, N-[2-(3-chloro-5-fluorobenzyl)-4-methyl-1,3-thiazol-5-yl]-3-(cyanomethyl)-1-methyl-1H-pyrazole-5-carboxamide], for which the activation at 10 µM worked out at 71%.

Take `Cc1nc(Cc2cccc(S(C)(=O)=O)c2)sc1NC(=O)c1ccnn1C` [Example 233, 1-methyl-N-{4-methyl-2-[3-(methylsulfonyl)benzyl]-1,3-thiazol-5-yl}-1H-pyrazole-5-carboxamide]: the activation at 10 µM came out at 81%.

For the molecule `Cc1nc(Cc2cc(F)cc(Cl)c2)sc1NC(=O)c1ccnn1CC(N)=O` [Example 234, 1-(carbamoylmethyl)-N-[2-(3-chloro-5-fluorobenzyl)-4-methyl-1,3-thiazol-5-yl]-1H-pyrazole-5-carboxamide], the activation at 10 µM stood at 78%.

Take `COc1cc(C(=O)Nc2sc(Cc3cc(F)cc(Cl)c3)nc2C)n(C)n1` [Example 235, N-[2-(3-chloro-5-fluorobenzyl)-4-methyl-1,3-thiazol-5-yl]-3-methoxy-1-methyl-1H-pyrazole-5-carboxamide]: the activation at 10 µM is 79%.

As for `Cc1nc(Cc2cc(F)cc(Cl)c2)sc1NC(=O)c1cc(CN2CCOCC2)nn1C` [Example 238, N-[2-(3-chloro-5-fluorobenzyl)-4-methyl-1,3-thiazol-5-yl]-1-methyl-3-(morpholinomethyl)-1H-pyrazole-5-carboxamide monohydrochloride], the activation at 10 µM was 80%.

As for `Cc1nc(Cc2cc(F)cc(Cl)c2)sc1NC(=O)c1cc(CS(C)(=O)=O)nn1C` [Example 242, N-[2-(3-chloro-5-fluorobenzyl)-4-methyl-1,3-thiazol-5-yl]-1-methyl-3-[(methylsulfonyl)methyl]-1H-pyrazole-5-carboxamide], the activation at 10 µM stood at 76%.

As to `Cc1nc(Cc2cc(F)cc(Cl)c2)sc1NC(=O)c1cc(Cn2ccnc2)nn1C` [Example 243, N-[2-(3-chloro-5-fluorobenzyl)-4-methyl-1,3-thiazol-5-yl]-3-[(1H-imidazol-1-yl)methyl]-1-methyl-1H-pyrazole-5-carboxamide], the activation at 10 µM was 77%.

For `Cc1nc(Cc2cc(F)cc(Cl)c2)sc1NC(=O)c1cc(S(C)(=O)=O)nn1C` [Example 246, N-[2-(3-chloro-5-fluorobenzyl)-4-methyl-1,3-thiazol-5-yl]-1-methyl-3-(methylsulfonyl)-1H-pyrazole-5-carboxamide], the activation at 10 µM is 70%.

Take `Cc1nc(Cc2cc(F)cc(Cl)c2)sc1NC(=O)c1cc([S+](C)[O-])nn1C` (stereo not drawn) [Example 247, N-[2-(3-chloro-5-fluorobenzyl)-4-methyl-1,3-thiazol-5-yl]-1-methyl-3-(methylsulfinyl)-1H-pyrazole-5-carboxamide]: the activation at 10 µM is 69%.

`Cc1nc(Cc2cc(F)cc(C3CC3)c2)sc1NC(=O)c1ccnn1C` [Example 249, N-[2-(3-cyclopropyl-5-fluorobenzyl)-4-methyl-1,3-thiazol-5-yl]-1-methyl-1H-pyrazole-5-carboxamide]: the activation at 10 µM worked out at 99%.

Take `Cc1nc(Cc2cc(F)cc(Cl)c2)sc1NC(=O)Cn1cnnn1` [Example 252, N-[2-(3-chloro-5-fluorobenzyl)-4-methyl-1,3-thiazol-5-yl]-2-(1H-tetrazol-1-yl)acetamide]: the activation at 10 µM is 72%.

The same assay, now with this note: test compound 10 µm, 37°C, 30 min, human GPR52-expressing CHO(dhfr-) cells; 100% = cAMP with 1 µM N-(2-hydroxyethyl)-3-[2-[3-(trifluoromethyl)benzyl]-1-benzofuran-4-yl]benzamide, 0% = DMSO.
In the case of `Cc1nc(Cc2cccc(C(F)(F)F)c2)sc1NC(=O)c1ccnn1C` [Example 3, 1-methyl-N-{4-methyl-2-[3-(trifluoromethyl)benzyl]-1,3-thiazol-5-yl}-1H-pyrazole-5-carboxamide], the “GPR52 agonist activity (%)” value is 81%.

As for “N^4-[2-(3-chloro-5-fluorobenzyl)-4-methyl-1,3-thiazol-5-yl]piperidine-1,4-dicarboxamide [Example 254]”, the “GPR52 agonist activity (%)” value is given as 77%.

The test system of a further assay is methamphetamine-induced locomotor hyperactivity in mice. Kind of assay: Inhibition test of methamphetamine-induced locomotor hyperactivity. The following applies: male ICR mice, test compound 30 mg/kg body weight orally, methamphetamine 2 mg/kg body weight subcutaneously 60 min later; relative to vehicle treatment group. The class given is in vivo. The method, then:
Inhibition test of methamphetamine-induced locomotor hyperactivity
The compound of the present invention can be evaluated by assessing its capacity to inhibit methamphetamine-induced locomotor hyperactivity in mice. The method of Okuyama et al (Life Science, Vol. 65, p. 2109-2125 (1999)) was modified and used for testing the inhibition of methamphetamine-induced locomotor hyperactivity.
Locomotor activity was measured using a 32-channel locomotor activity measurement device MDC-LT (BrainScience Idea Co., Ltd.), which emits infrared beams from the top of a cage (30 cm x 40 cm x 20 cm). 6- to 8-Week-old male ICR mice were acclimated for at least 45 min in the measurement cages, and then either test compound (30 mg/kg body weight) dissolved in vehicle (0.5% aqueous methylcellulose solution) or the vehicle alone was orally administered to the laboratory animals. This oral administration was followed 60 min later by subcutaneous administration of methamphetamine (2 mg/kg body weight).
The number of times the laboratory animals passed through the infrared beams emitted inside the measurement cages in 150 min after administration of the test compound or vehicle was counted to quantify locomotor activity. The methamphetamine-induced locomotor hyperactivity inhibition rate (activity inhibition rate (%)) was calculated by the following equation. Activityinhibitionrate(%) = {1-(locomotoractivityoftestcompoundtreatmentgroupaftertreatmentwithmethamphetamine÷locomotoractivityofvehicletreatmentgroupaftertreatmentwithmethamphetamine)}x100 [formula]
Take `Cc1nc(Cc2cccc(C(F)(F)F)c2)sc1NC(=O)c1ccnn1C` [Example 3, 1-methyl-N-{4-methyl-2-[3-(trifluoromethyl)benzyl]-1,3-thiazol-5-yl}-1H-pyrazole-5-carboxamide]: the “motor activity suppression rate (%)” value was 32%.

As for `Cc1nc(Cc2cc(F)cc(Cl)c2)sc1NC(=O)c1ccnn1C` [Example 145, N-[2-(3-chloro-5-fluorobenzyl)-4-methyl-1,3-thiazol-5-yl]-1-methyl-1H-pyrazole-5-carboxamide], the “motor activity suppression rate (%)” value was 47%.

On to `Cc1nn(C)cc1C(=O)Nc1sc(Cc2cc(F)cc(Cl)c2)nc1C` [Example 146, N-[2-(3-chloro-5-fluorobenzyl)-4-methyl-1,3-thiazol-5-yl]-1,3-dimethyl-1H-pyrazole-4-carboxamide], for which the “motor activity suppression rate (%)” value is listed as 42%.

`CCn1nccc1C(=O)Nc1sc(Cc2cc(F)cc(Cl)c2)nc1C` [Example 148, N-[2-(3-chloro-5-fluorobenzyl)-4-methyl-1,3-thiazol-5-yl]-1-ethyl-1H-pyrazole-5-carboxamide]: the “motor activity suppression rate (%)” value worked out at 67%.

On to `CCCn1nccc1C(=O)Nc1sc(Cc2cc(F)cc(Cl)c2)nc1C` [Example 153, N-[2-(3-chloro-5-fluorobenzyl)-4-methyl-1,3-thiazol-5-yl]-1-propyl-1H-pyrazole-5-carboxamide], for which the “motor activity suppression rate (%)” value was found to be 39%.
